Laboratory results from patent US20050266577A1, “Ultrafiltration device for drug binding studies” (Millipore Corporation, priority 2002, published 2005).
Where two headings read alike, the source gives them in different places.

Experiments:
[1] = 10 nanomolar CE concentration in phosphate buffered saline
Text: Microcon® Device Preparation:
The membrane to be tested was cut with the appropriate die cutter for the diameter of the device. The assembly consisted of placing the membrane on the support followed by addition of a gasket.
The collar is then placed on top of the assembly and sealed at a pressure varying from 65 to 100 psi.
Radioactive Analyte Preparation:
In order to prepare the analyte we used the following equation: [Concentration of Analyte]×[Volume needed for the experiment in microliter]×[Specific activity (Ci/mol)]×[1/Concentration (Ci/µl)].
The required volume of analyte was added to an appropriate volume of PBS. 200 µl of this preparation was used per sample.
Each membrane was tested in triplicate.
A first control plate, a Multiscreen® 96 well plate containing a heat sealed UPE (ultrahigh molecular weight polyethylene) composite cellulosic UF membrane, was used in a binding study.

[2] = Non-specific binding, second control plate with ultrafiltrate diluent added; conditions: 10 nanomolar CE in phosphate buffered saline
Procedure: Each membrane was tested in triplicate. Each Microcon® device was placed in the appropriately labeled retentate/filtrate vial. If the membrane to be tested needed to be pre-wetted before proceeding with this process, one needed to be sure that the membrane received a final rinse with PBS prior to testing. 200 µl of analyte solution was added to each Microcon® device and spun to dryness (20-30 minutes) in a microcentrifuge (14000-×g). The membranes were rinsed by adding 25 µl to each device and spun in the microcentrifuge (14000-×g) for 10 minutes.
To determine the amount of non-specific binding to the membrane, the collar and gasket were removed and the membrane placed in a glass scintillation vial. Three ml of scintillation cocktail was added to each vial. A 20 µl aliquot of the original solution was added to 3 ml of scintillation cocktail for reference. Radioactivity (in DPM) was determined by liquid scintillation counting using 1 minute counting periods and a stored quench curve as described by the equipment manufacturer.
The ratio of radioactivity found on the membrane compared to the total amount of radioactivity added was reported as a percentage and was used to assess CE NSB of the membrane being tested.

[3] = No support, table after second control plate (ultrafiltrate diluent)
[4] = Support: UPE composite, second control plate, ultrafiltrate diluent added

| SMILES | % Non Specific Binding ([1]; No support) [%] | % Non Specific Binding ([1]; Support: Non-woven 1) [%] | % Non Specific Binding ([1]; Support: Non-woven 2) [%] | % Non Specific Binding ([1]; Support: UPE composite) [%] | % Non Specific Binding [2, 3] [%] | % Non Specific Binding [2, 4] [%] |
| --- | --- | --- | --- | --- | --- | --- |
| C[C@H]1O[C@@H](O[C@H]2[C@@H](O)C[C@H](O[C@H]3[C@@H](O)C[C@H](O[C@H]4CC[C@@]5(C)[C@H](CC[C@@H]6[C@@H]5C[C@@H](O)[C@]5(C)[C@@H](C7=CC(=O)OC7)CC[C@]65O)C4)O[C@@H]3C)O[C@@H]2C)C[C@H](O)[C@@H]1O [digoxin] | 3 | 3 | 2 | 47 | 3 | 92 |
| OC[C@@H](O)[C@@H](O)[C@H](O)[C@H](O)CO [mannitol] | 2 | 2 | 1 | 1 | 1 | 2 |
| CN(Cc1cnc2nc(N)nc(N)c2n1)c1ccc(C(=O)N[C@@H](CCC(=O)O)C(=O)O)cc1 [methotrexate] | 4 | 0 | 3 | 16 | – | – |
| CC(C)NCC(O)COc1cccc2ccccc12 (centres unmarked) [proprananol] | 4 | 0 | 2 | 61 | – | – |
| C[C@]12CC[C@H]3[C@@H](CCC4=CC(=O)CC[C@@]43C)[C@@H]1CC[C@@H]2O [testosterone] | 4 | 1 | 1 | 101 | 3 | 80 |
